Data reported in US20230135635A1, “INHIBITORS OF ULK1/2 AND METHODS OF USING SAME” (SALK INSTITUTE FOR BIOLOGICAL STUDIES, priority 2020, published 2023).

Molecular target: T1, recombinant human ULK1 protein (1-649) (Homo sapiens, UniProt O75385)
T1 construct: recombinant human ULK1 protein (1-649, SignalChem #U01-11G); purchased SignalChem U01-11G
T1 sequence (O75385 1-649): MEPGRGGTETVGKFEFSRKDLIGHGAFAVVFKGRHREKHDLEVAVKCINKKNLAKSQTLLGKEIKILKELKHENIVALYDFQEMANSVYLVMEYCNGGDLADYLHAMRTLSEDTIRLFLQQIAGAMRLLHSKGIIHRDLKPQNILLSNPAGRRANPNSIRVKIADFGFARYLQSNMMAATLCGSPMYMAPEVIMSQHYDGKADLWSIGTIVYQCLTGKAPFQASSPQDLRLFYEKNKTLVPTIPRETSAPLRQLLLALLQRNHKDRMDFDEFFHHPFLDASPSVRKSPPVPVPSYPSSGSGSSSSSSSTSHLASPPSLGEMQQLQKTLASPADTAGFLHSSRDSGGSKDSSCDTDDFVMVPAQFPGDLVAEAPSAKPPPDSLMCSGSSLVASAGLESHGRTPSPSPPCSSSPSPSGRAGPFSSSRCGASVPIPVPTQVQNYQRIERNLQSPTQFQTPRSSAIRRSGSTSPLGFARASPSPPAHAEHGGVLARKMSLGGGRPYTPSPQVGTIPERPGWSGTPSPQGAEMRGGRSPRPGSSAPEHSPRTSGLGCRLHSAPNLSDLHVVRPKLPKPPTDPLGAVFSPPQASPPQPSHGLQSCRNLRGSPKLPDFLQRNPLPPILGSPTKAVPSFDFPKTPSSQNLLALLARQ
Assay: ULK1 inhibition assay (ADP Glo)
Assay type: biochemical
Conditions: Table 3
In short: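 Recombinant ULK1 (2 ug/mL) phosphorylated myelin basic protein (80 ug/mL) at 25 uM ATP; ADP formed was detected by ADP-Glo after 1 h. Compounds ran in triplicate, 16-dose 3-fold serial dilution from 30 uM, to give IC50.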

| IC50 [nM] | SMILES |
| --- | --- |
| 5 to 100 | O=c1[nH]c2ccc(Nc3ncc(C(F)(F)F)c(NC4CC4)n3)cc2[nH]1 [Compound D1] |
| < 5 | O=C(NCc1ccc(Nc2ncc(C(F)(F)F)c(NC3CC3)n2)cc1)OCc1ccccc1 [Compound D2] |
| < 5 | NCc1ccc(Nc2ncc(C(F)(F)F)c(NC3CC3)n2)cc1 [Compound D3] |
| < 5 | CN(C)Cc1ccc(Nc2ncc(C(F)(F)F)c(NC3CC3)n2)cc1 [Compound D4] |
| 5 to 100 | CC(=O)NCc1ccc(Nc2ncc(C(F)(F)F)c(NC3CC3)n2)cc1 [Compound D5] |
| < 5 | CN(C)C1Cc2ccc(Nc3ncc(C(F)(F)F)c(NC4CC4)n3)cc2C1 (stereo not shown) [Compound D6] |
| < 5 | COC(=O)c1ccccc1Nc1nc(Nc2cc(OC)c(OC)c(OC)c2)ncc1Br [Compound E1] |
| < 5 | COc1cc(Nc2ncc(Br)c(Nc3ccccc3C(=O)O)n2)cc(OC)c1OC [Compound E2] |
| 5 to 100 | COc1cc(Nc2ncc(Br)c(Nc3ccccc3SC)n2)cc(OC)c1OC [Compound E3] |
| > 100 | CNC(=O)c1ccccc1Nc1cc(C#N)nc(Nc2cc(OC)c(OC)c(OC)c2)n1 [Compound E8, 2-((6-Cyano-2-((3,4,5-trimethoxyphenyl)amino)pyrimidin-4-yl)amino)-N-methylbenzamide] |
| 5 to 100 | CNC(=O)c1ccccc1Nc1nc(Nc2cccc(OC)c2)ncc1Br [Compound E14, 2-((5-Bromo-2-((3-methoxyphenyl)amino)pyrimidin-4-yl)amino)-N-methylbenzamide] |
| > 100 | CNC(=O)c1ccccc1Nc1nc(Nc2ccc(OC)cc2)ncc1Br [Compound E15, 2-((5-Bromo-2-((4-methoxyphenyl)amino)pyrimidin-4-yl)amino)-N-methylbenzamide] |
| 5 to 100 | CNC(=O)c1ccccc1Nc1nc(Nc2ccc(OC)c(OC)c2)ncc1Br [Compound E16, 2-((5-Bromo-2-((3,4-dimethoxyphenyl)amino)pyrimidin-4-yl)amino)-N-methylbenzamide] |
| 5 to 100 | CNC(=O)c1ccccc1Nc1nc(Nc2cc(OC)cc(OC)c2)ncc1Br [Compound E17, 2-((5-Bromo-2-((3,5-dimethoxyphenyl)amino)pyrimidin-4-yl)amino)-N-methylbenzamide] |
| > 100 | CNC(=O)c1ccccc1Nc1nc(Nc2ccc(OC(F)F)cc2)ncc1Br [Compound E18, 2-((5-Bromo-2-((4-(difluoromethoxy)phenyl)amino)pyrimidin-4-yl)amino)-N-methylbenzamide] |
| > 100 | CNC(=O)c1ccccc1Nc1nc(Nc2ccc(OC(F)(F)F)cc2)ncc1Br [Compound E19, 2-((5-Bromo-2-((4-(trifluoromethoxy)phenyl)amino)pyrimidin-4-yl)amino)-N-methylbenzamide] |
| > 100 | CNC(=O)c1ccccc1Nc1nc(Nc2cccc(OC(F)F)c2)ncc1Br [Compound E20, 2-((5-Bromo-2-((3-(difluoromethoxy)phenyl)amino)pyrimidin-4-yl)amino)-N-methylbenzamide] |
| 5 to 100 | CNC(=O)c1ccccc1Nc1nc(Nc2cccc(OC(F)(F)F)c2)ncc1Br [Compound E21, 2-((5-Bromo-2-((3-(trifluoromethoxy)phenyl)amino)pyrimidin-4-yl)amino)-N-methylbenzamide] |
| 5 to 100 | COc1cc(Nc2ncc(Br)c(Nc3ccccc3C(=O)NCC(F)F)n2)cc(OC)c1OC [Compound E22, 2-((5-Bromo-2-((3,4,5-trimethoxyphenyl)amino)pyrimidin-4-yl)amino)-N-(2,2-difluoroethyl)benzamide] |
| 5 to 100 | COc1cc(Nc2ncc(Br)c(Nc3ccccc3C(=O)NCC(F)(F)F)n2)cc(OC)c1OC [Compound E23, 2-((5-Bromo-2-((3,4,5-trimethoxyphenyl)amino)pyrimidin-4-yl)amino)-N-(2,2,2-trifluoroethyl)benzamide] |
| 5 to 100 | CNC(=O)c1ccccc1Nc1nc(Nc2ccc(N3CCNCC3)cc2)ncc1Br [Compound E24, 2-((5-Bromo-2-((4-(piperazin-1-yl)phenyl)amino)pyrimidin-4-yl)amino)-N-methylbenzamide] |
| 5 to 100 | C#CCN1CCN(c2ccc(Nc3ncc(Br)c(Nc4ccccc4C(=O)NC)n3)cc2)CC1 [Compound E25, 2-((5-Bromo-2-((4-(4-(prop-2-yn-1-yl)piperazin-1-yl)phenyl)amino)pyrimidin-4-yl)amino)-N-methylbenzamide] |
| > 100 | CNC(=O)c1cccc(Nc2nc(Nc3cc(OC)c(OC)c(OC)c3)ncc2Br)c1 [Compound E26, 3-((5-Bromo-2-((3,4,5-trimethoxyphenyl)amino)pyrimidin-4-yl)amino)-N-methylbenzamide] |
| > 100 | CNC(=O)c1ccc(Nc2nc(Nc3cc(OC)c(OC)c(OC)c3)ncc2Br)cc1 [Compound E27, 4-((5-Bromo-2-((3,4,5-trimethoxyphenyl)amino)pyrimidin-4-yl)amino)-N-methylbenzamide] |
| > 100 | COc1cc(Nc2ncc(Br)c(Nc3ccc(NC(=O)C4(C(=O)Nc5ccc(F)cc5)CC4)cc3F)n2)cc(OC)c1OC [Compound E28, N-(4-((5-Bromo-2-((3,4,5-trimethoxyphenyl)amino)pyrimidin-4-yl)amino)-3-fluorophenyl)-N-(4-fluorophenyl)cyclopropane-1,1-dicarboxamide] |
